Measurements from paper PMC11098091 (Nature chemical biology, 2022).

What was measured:
μOR Q124^2.60A mutant [1] = target: T1, μOR Q124^2.60A mutant (Homo sapiens, UniProt P35372, Q126A); assay type: cell-based
wild type human μOR [2] = target: T2, wild type human μOR (Homo sapiens, UniProt P35372); assay type: cell-based
human μOR (Gz) = human μOR (Gz) (Homo sapiens, UniProt P35372); assay type: cell-based; conditions: read-out: potency at Gz
μOR Y326^7.43F mutant [3] = target: T3, μOR Y326^7.43F mutant (Homo sapiens, UniProt P35372, Y328F); assay type: cell-based
human μOR = human μOR (Homo sapiens, UniProt P35372); assay type: cell-based
μOR Y326^7.43F mutant [4] = target: T3, μOR Y326^7.43F mutant; assay type: cell-based; remark: listed apart in the source
[5] = target: human μOR (β-arrestin-1, β-arrestin-2) (Homo sapiens, UniProt P35372); assay type: cell-based
wild type human μOR [6] = target: T2, wild type human μOR; assay type: cell-based; remark: listed apart in the source
human μOR (GoB) = human μOR (GoB) (Homo sapiens, UniProt P35372); assay type: cell-based; conditions: read-out: potency at GoB
mice = conditions: mouse, in vivo; cited from earlier work
μOR Q124^2.60A mutant [7] = target: T1, μOR Q124^2.60A mutant; assay type: cell-based; remark: listed apart in the source

T3 sequence (P35372 whole entry Y328F): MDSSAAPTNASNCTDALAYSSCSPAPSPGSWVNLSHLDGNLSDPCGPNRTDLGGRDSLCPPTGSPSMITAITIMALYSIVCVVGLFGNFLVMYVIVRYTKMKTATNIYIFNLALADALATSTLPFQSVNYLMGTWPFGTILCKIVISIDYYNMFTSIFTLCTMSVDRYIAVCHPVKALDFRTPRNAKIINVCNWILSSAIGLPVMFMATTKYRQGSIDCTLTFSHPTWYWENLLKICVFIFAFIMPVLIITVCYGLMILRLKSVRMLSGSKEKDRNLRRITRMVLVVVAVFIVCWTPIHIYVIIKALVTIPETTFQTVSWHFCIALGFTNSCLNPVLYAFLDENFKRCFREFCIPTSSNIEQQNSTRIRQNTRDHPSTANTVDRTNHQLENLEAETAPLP
T2 sequence (P35372 whole entry): as the sequence (P35372 whole entry Y328F) above, with F328Y counted along it
Chain of human μOR (P35372 whole entry): as the sequence (P35372 whole entry Y328F) above, with F328Y counted along it
T1 sequence (P35372 whole entry Q126A): as the sequence (P35372 whole entry Y328F) above, with Q126A, F328Y counted along it
Chain of human μOR (GoB) (P35372 whole entry): as the sequence (P35372 whole entry Y328F) above, with F328Y counted along it
Chain of human μOR (Gz) (P35372 whole entry): as the sequence (P35372 whole entry Y328F) above, with F328Y counted along it
Chain of human μOR (β-arrestin-1, β-arrestin-2) (P35372 whole entry): as the sequence (P35372 whole entry Y328F) above, with F328Y counted along it

For CC[C@@H]1CN2CC[C@]3(Nc4cccc(OC)c4C3=O)[C@@H]2C[C@@H]1/C(=C\OC)C(=O)OC [MP, Mitragynine pseudoindoxyl], the “arrestin recruitment at the Q124A mutant” value (μOR Q124^2.60A mutant [1]) was “completely abolishes”, the “potency in G protein dissociation assays” value (wild type human μOR [2]) was “as potent as DAMGO” and the EC50 (human μOR (Gz)) was 0.9 nM. For the same compound, the “reduction of maximal Gi1 activation by the Y326F mutation” value (μOR Y326^7.43F mutant [3]) was 68%, the “efficacy at Gi/o/z subtypes compared to DAMGO” value (human μOR) was “partial agonist” and the “potency spread across G protein subtypes” value (human μOR) was ~ 3 fold. For the same compound, the “reduction of maximal β-arrestin 2 recruitment by the Y326F mutation” value (μOR Y326^7.43F mutant [4]) was “eliminated detectable”, the “recruitment of β-arrestins” value [5] was “no detectable recruitment” and the “recruitment of β-arrestins” value (wild type human μOR [6]) was “very little detectable activity”. For the same compound, the EC50 (human μOR (GoB)) was 3.2 nM, the “development of antinociceptive tolerance” value (mice) was “much more slowly” and the “potency relative to morphine” value (mice) was “approximately ten-fold more potent”. For the same compound, the respiratory depression (mice) was “did not cause respiratory depression” and the “reduction of maximal Gi response by the Q124A mutation” value (μOR Q124^2.60A mutant [7]) was “more than half”.
